{"source": "patent US20120283303A1", "about": "“USE OF N-AMINOIMIDAZOLE CYTOPROTECTIVE COMPOUNDS FOR TREATING CELL DEATH AND/OR GSK-3 MEDIATED DISEASES” (K.U.LEUVEN RESEARCH AND DEVELOPMENT, priority 2006, published 2012)", "key": {"[1]": {"test_system": "Peripheral blood mononuclear cells (PBMCs)", "test": "PBMC survival (viable cell count, trypan blue exclusion)", "assay_type": "cell-based, human", "method": "Peripheral blood mononuclear cells (PBMCs) from healthy donors were isolated by density centrifugation (Lymphoprep; Nycomed Pharma, AS Diagnostics, Oslo, Norway). For the “non-stimulated” conditions (NS) the cells were cultivated at a density of 1,750,000 cells per ml in RPMI-1640 supplemented with 2 mM L-glutamine, 15% FCS and 0.1% NaHCO3 for 3 days. […] At day 0 of the experiment, the NS and activated cells (PHA-stimulated blasts) were washed with PBS and were pelleted by centrifugation. […] The number of viable cells was counted based on the trypan blue exclusion method. The evolution of the number of cells was followed over a period of approximately 2 weeks."}, "motor neurons [2]": {"test_system": "motor neurons", "test": "Basal survival of motor neurons in monoculture", "assay_type": "cell-based, Wistar rats", "method": "(§1) Cell cultures: Primary motor neuron cultures were prepared from Wistar rats as follows. Spinal cords were dissected from E14 embryos and collected in Hanks' Balanced Salt Solution (HBSS; Gibco Invitrogen, Grand Island, N.Y). Ventral cords were minced and digested for 15 minutes at 37° C. in 0.05% trypsin in HBSS. The solution was then replaced with medium A (L15 (Sigma, St.-Louis, Mo.) supplemented with glucose, progesterone, insulin, putrescine, conalbumin, sodium selenite, penicillin, streptomycin and 2% horse serum) containing 0.4% BSA and 20 μg/ml DNase and the tissue was dissociated by trituration. The resulting single cell suspension was layered on a 6.8% (weight/volume in L15) optiprep cushion (one spinal cord per tube) and centrifuged at 500 g for 15 minutes. […] To remove debris, both fractions were resuspended in medium A and centrifuged for 20 minutes at 75 g on a 4% BSA cushion. For co-cultures, 30,000 motor neurons of the F1 fraction were seeded on a glial feeder layer. Glial feeder layers were prepared by plating F2 cells in 35 mm dishes. After 4 weeks in vitro, cell division was halted by exposure to 10^−5 M cytosine arabinoside. For monocultures, 45,000 motor neurons were seeded in 35 mm dishes.\nImmunocytochemistry: Cell cultures were washed and fixed in cooled paraformadehyde 4% for 30 minutes. After three washes, cells were incubated in blocking solution (10% normal serum in phosphate buffered saline (PBS)) for 1 hour. Monoclonal anti-SMI-32 ( 1/10,000, Sternberger Monoclonal Inc., Luthersville, Md.) and goat anti-GFAP ( 1/10,000, Dako, Denmark) were incubated overnight in 1% normal serum in PBS. Secondary antibodies used were goat anti-mouse IgG Alaxa555 ( 1/500, Molecular Probes, Eugene, Oreg.) and donkey anti-goat FITC ( 1/500, Jackson ImmunoResearch, West Grove, Pa.).\nExposure experiments: After 1 day in culture NAIM was added to the culture medium at different concentrations. All other compounds were also added after 24 hours in culture. When culture medium was replaced, only half of the medium was taken and replaced by fresh medium, in which all different compounds were substituted as to maintain the initial concentration. In the experiment in which the effect of fresh medium was evaluated, the culture medium was replaced in total every day. […]\nIn order to determine whether the effect of NAIM was mediated through the secretion of a soluble factor in the medium by the underlying astroglial feeder layer, we prepared monocultures in which only motor neurons were present. […] In order to determine whether the protective effect of the compound was dose-dependent, we conducted a dose-response study, in which cultures were treated with different concentrations of NAIM from day 1 off and cell survival was assessed on day 5."}, "motor neurons [3]": {"test_system": "motor neurons", "test": "Basal survival of motor neurons in co-culture on glial feeder layer", "assay_type": "cell-based, Wistar rats", "conditions": "FIG. 1A", "method": "as §1, with “For monocultures, 45,000 motor neurons were seeded in 35 mm dishes.” left out\nExposure experiments: After 1 day in culture NAIM was added to the culture medium at different concentrations. […] In the experiment in which the effect of fresh medium was evaluated, the culture medium was replaced in total every day. […]"}, "P/CAF (H4 peptide)": {"biological_target": "T1, P/CAF (H4 peptide) (Homo sapiens, UniProt Q92831)", "T1 construct": "purchased Upstate Biotechnology", "T1 sequence (Q92831 whole entry)": "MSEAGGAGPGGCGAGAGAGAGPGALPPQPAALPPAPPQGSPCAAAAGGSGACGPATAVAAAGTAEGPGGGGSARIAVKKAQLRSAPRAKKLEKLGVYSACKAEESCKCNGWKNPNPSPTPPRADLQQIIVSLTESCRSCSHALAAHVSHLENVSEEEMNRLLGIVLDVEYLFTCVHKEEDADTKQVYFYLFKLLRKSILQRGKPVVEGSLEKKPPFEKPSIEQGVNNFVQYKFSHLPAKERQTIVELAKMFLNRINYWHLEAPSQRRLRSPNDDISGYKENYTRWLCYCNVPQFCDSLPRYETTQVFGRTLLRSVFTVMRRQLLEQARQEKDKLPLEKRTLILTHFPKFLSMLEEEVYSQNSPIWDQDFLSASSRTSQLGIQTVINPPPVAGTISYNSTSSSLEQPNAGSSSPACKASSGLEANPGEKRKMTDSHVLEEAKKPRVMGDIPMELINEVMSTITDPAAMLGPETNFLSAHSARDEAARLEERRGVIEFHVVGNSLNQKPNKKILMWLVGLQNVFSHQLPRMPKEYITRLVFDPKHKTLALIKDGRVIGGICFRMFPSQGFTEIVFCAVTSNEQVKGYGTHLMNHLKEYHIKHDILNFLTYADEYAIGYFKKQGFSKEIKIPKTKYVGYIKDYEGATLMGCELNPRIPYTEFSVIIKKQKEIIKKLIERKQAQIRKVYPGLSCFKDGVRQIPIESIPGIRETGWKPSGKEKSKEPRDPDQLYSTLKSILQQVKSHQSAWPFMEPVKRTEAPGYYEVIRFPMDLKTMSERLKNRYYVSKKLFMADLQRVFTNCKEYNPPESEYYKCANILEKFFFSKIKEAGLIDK", "test": "Radiometric enzyme activity assay, P/CAF (H4 peptide)", "assay_type": "biochemical", "conditions": "5 μg/ml NR-818, 10 μM ATP", "method": "(§2) GSK-3 were assayed for their ability to phosphorylate the appropriate peptide/protein substrate in the presence of 5 μg/ml NR-818 and 10 μM ATP. Using the direct radiometric approach, kinase activities were determined and expressed as % activity compared to the untreated control (Upstate Biotechnology, Lake Placid, N.Y.). Activities are given as the mean of duplicate determinations relative to control incubations in which the inhibitor was substituted with DMSO. In the following table 1 providing results for NR818, the following abbreviations are used: • CDK, cyclin-dependent kinase; • CK, casein kinase; • eEF-2K, eukaryotic elongation factor-2 kinase; • JNK, c-Jun N-terminal kinase; • MAPK, mitogen-activated protein kinase; • PKC, protein kinase C; and • PI 3-kinase, phosphatidylinositol 3-kinase."}, "eEF-2K": {"biological_target": "T2, eEF-2K (Homo sapiens, UniProt O00418)", "T2 construct": "purchased Upstate Biotechnology", "T2 sequence (O00418 whole entry)": "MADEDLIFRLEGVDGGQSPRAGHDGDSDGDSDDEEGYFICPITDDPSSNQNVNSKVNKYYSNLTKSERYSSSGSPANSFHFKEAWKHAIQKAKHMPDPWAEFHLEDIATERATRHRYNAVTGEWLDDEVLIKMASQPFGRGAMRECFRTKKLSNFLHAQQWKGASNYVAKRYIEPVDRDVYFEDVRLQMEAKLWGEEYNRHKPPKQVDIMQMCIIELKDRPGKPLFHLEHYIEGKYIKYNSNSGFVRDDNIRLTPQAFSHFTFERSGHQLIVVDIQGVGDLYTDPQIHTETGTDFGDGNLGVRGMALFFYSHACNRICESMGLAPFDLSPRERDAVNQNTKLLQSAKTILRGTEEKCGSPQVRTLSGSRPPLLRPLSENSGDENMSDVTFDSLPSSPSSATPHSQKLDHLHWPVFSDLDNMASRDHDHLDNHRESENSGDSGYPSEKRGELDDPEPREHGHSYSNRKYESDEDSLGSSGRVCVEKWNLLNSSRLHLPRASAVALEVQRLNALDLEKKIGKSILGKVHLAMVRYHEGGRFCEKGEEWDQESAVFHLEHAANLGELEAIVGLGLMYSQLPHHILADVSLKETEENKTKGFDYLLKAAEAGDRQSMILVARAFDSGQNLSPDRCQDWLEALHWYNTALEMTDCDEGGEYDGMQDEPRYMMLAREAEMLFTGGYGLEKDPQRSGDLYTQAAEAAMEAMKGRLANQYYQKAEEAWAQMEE", "test": "Radiometric kinase activity assay", "assay_type": "biochemical", "conditions": "5 μg/ml NR-818, 10 μM ATP", "method": "as §2"}, "PI 3-kinaseβ": {"biological_target": "T3, PI 3-kinaseβ (Homo sapiens, UniProt P42338)", "T3 construct": "purchased Upstate Biotechnology", "T3 sequence (P42338 whole entry)": "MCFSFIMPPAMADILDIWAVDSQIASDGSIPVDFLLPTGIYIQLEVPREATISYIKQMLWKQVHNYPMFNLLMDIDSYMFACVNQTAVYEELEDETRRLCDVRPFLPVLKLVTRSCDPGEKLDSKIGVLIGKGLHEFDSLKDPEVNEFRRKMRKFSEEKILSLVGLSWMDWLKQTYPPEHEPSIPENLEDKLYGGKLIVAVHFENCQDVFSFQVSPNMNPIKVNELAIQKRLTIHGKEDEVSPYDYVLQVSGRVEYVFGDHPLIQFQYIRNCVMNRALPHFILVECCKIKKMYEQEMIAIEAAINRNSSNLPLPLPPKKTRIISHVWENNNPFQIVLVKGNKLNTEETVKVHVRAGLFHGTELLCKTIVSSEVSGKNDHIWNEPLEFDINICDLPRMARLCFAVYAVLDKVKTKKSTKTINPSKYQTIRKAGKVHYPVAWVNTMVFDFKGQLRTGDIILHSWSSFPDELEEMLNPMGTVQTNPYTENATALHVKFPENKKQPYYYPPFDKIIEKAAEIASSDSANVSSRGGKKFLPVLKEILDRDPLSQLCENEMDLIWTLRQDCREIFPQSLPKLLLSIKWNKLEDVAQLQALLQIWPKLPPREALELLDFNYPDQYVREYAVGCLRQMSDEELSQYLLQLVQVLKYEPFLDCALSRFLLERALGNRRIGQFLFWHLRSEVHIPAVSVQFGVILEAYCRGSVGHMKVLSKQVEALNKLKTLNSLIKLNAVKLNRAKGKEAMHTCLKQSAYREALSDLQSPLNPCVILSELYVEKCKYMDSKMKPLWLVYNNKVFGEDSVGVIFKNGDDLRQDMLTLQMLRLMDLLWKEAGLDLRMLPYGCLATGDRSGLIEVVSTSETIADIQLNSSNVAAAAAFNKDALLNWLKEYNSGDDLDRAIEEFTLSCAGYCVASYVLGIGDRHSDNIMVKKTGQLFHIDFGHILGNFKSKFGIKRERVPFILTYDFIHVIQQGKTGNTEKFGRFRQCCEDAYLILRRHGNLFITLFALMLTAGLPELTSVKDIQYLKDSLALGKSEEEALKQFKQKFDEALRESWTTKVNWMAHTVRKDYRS", "T3 sequence (P27986 whole entry partner)": "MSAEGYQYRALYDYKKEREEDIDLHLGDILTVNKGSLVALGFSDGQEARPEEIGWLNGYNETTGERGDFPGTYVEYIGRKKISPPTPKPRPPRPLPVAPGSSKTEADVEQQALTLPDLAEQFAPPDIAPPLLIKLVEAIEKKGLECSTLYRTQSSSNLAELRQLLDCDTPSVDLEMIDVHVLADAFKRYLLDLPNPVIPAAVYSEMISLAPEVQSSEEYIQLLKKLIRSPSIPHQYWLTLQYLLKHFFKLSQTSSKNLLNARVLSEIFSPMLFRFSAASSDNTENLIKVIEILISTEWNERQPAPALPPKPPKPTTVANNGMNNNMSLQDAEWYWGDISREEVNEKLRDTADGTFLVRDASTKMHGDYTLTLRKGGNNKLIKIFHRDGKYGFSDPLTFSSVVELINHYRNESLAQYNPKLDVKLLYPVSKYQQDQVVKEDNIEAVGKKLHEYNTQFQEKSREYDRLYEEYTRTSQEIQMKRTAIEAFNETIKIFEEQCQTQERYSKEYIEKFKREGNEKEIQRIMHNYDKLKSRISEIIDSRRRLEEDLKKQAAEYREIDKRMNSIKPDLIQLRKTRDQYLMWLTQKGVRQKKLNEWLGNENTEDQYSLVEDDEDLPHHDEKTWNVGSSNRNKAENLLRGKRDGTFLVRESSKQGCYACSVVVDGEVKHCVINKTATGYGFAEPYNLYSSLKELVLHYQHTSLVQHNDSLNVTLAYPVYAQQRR", "test": "Radiometric kinase activity assay", "assay_type": "biochemical", "conditions": "5 μg/ml NR-818, 10 μM ATP", "method": "as §2"}, "MAPK1": {"biological_target": "T4, MAPK1 (Homo sapiens, UniProt P27361)", "T4 construct": "purchased Upstate Biotechnology", "T4 sequence (P27361 whole entry)": "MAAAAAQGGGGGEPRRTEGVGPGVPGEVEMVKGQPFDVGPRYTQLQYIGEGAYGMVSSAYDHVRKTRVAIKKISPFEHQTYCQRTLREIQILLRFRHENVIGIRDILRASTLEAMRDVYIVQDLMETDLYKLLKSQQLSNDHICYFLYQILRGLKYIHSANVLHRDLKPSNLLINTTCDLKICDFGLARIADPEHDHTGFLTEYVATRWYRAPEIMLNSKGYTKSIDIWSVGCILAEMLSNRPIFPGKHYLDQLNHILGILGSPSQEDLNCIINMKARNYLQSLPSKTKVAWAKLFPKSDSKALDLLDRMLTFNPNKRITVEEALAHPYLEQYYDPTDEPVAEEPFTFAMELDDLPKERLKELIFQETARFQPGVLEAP", "test": "Radiometric kinase activity assay", "assay_type": "biochemical", "conditions": "5 μg/ml NR-818, 10 μM ATP", "method": "as §2"}, "CDK5/p25": {"biological_target": "T5, CDK5/p25 (Homo sapiens, UniProt Q00535)", "T5 construct": "purchased Upstate Biotechnology", "T5 sequence (Q00535 whole entry)": "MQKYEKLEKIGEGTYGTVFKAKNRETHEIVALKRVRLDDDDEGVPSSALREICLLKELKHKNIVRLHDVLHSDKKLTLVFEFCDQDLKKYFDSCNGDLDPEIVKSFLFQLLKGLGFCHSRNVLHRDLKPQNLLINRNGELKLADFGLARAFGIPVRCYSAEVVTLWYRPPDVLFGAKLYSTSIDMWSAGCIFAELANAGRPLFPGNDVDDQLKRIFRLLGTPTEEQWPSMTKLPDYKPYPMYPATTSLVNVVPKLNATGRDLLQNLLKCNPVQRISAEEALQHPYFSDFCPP", "T5 sequence (Q15078 99-307 partner limits assumed)": "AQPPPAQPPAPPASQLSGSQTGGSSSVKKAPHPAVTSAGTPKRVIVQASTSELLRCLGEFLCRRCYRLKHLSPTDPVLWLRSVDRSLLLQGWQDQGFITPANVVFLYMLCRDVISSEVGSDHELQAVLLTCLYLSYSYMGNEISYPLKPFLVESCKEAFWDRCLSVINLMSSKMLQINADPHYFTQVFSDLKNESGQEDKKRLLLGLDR", "test": "Radiometric kinase activity assay", "assay_type": "biochemical", "conditions": "5 μg/ml NR-818, 10 μM ATP", "method": "as §2"}}}
{"smiles": "Cc1nc(S)n(Nc2cccc3ccccc23)c1-c1ccccc1", "note": "[HER/NR818, 4-Methyl-1-(naphthalen-1-ylamino)-5-phenyl-1,3-dihydro-imidazole-2-thione]", "values": [{"measurement": "PBMC cell count, NAIM combined with IL-2", "setting": "[1]; IL-2 10 U/ml plus NAIM (NR818 2.5 μg/ml), stimulated and non stimulated cells, versus IL-2 only", "result": "enhanced"}, {"measurement": "PBMC cell viability, NAIM as such", "setting": "[1]; NAIM alone, compared to control conditions", "result": "did not affect the cell viability"}, {"measurement": "effect of daily medium replacement on protective properties", "setting": "motor neurons [2]; medium replaced every day, FIG. 3", "result": "no effect on the protective properties"}, {"measurement": "basal survival of motor neurons", "setting": "motor neurons [2]; monoculture, FIG. 1B", "result": "significant increase of the basal survival"}, {"measurement": "protective effect in combination with IL-2, IL-2-receptor blocking antibody or GM-CSF", "setting": "motor neurons [2]; monoculture, survival on day 5, FIG. 4", "result": "not influenced by either of the added compounds"}, {"measurement": "optimal concentration for motor neuron survival", "setting": "motor neurons [2]; monocultures, dose-response, treated from day 1, survival assessed on day 5, FIG. 2", "result": 1, "unit": "µg/mL"}, {"measurement": "basal survival of motor neurons", "setting": "motor neurons [3]", "result": "significant increase in the basal survival"}, {"measurement": "Activity (% of control)", "setting": "P/CAF (H4 peptide)", "result": "103 % of control"}, {"measurement": "Activity (% of control)", "setting": "eEF-2K", "result": "101 % of control"}, {"measurement": "Activity (% of control)", "setting": "PI 3-kinaseβ", "result": "81 % of control"}, {"measurement": "Activity (% of control)", "setting": "MAPK1", "result": "104 % of control"}, {"measurement": "Activity (% of control)", "setting": "CDK5/p25", "result": "98 % of control"}]}
